# “And” between values parts separate entries of the source, which are not always exact repeats. Identical values can stand only once. Inconclusive results and toxic doses are left out.
# Test system: BDF1 mice, Lewis lung carcinoma iv, survival T/C
# Experiment: NCI In Vivo Anticancer Drug Screen. Data for tumor model Lewis Lung Carcinoma (intravenous) in B6D2F1 (BDF1) mice
# Settings: endpoint: median survival time, higher = longer survival
# Description: The antitumor activity of compounds was measured in mice bearing transplantable tumors. Survival or tumor size were measured and the results are expressed as the measurement made in the treated group (T) divided by the measurement made in the vehicle treated control group (C). The tumor model used in this assay is Lewis Lung Carcinoma (intravenous) in B6D2F1 (BDF1) mice
# [1] = dose: 25.0 mg/kg/injection, schedule: Q01DX009 (ip), vehicle: saline
# [2] = dose: 50.0 mg/kg/injection, schedule: Q01DX009 (ip), vehicle: saline
# [3] = dose: 100.0 mg/kg/injection, schedule: Q01DX009 (ip), vehicle: saline
# [4] = dose: 12.5 mg/kg/injection, schedule: Q01DX009 (ip), vehicle: saline with Tween-80
# [5] = dose: 25.0 mg/kg/injection, schedule: Q01DX009 (ip), vehicle: saline with Tween-80
# [6] = dose: 50.0 mg/kg/injection, schedule: Q01DX009 (ip), vehicle: saline with Tween-80
# [7] = dose: 100.0 mg/kg/injection, schedule: Q01DX009 (ip), vehicle: saline with Tween-80
# [8] = dose: 200.0 mg/kg/injection, schedule: Q01DX009 (ip), vehicle: saline with Tween-80
# [9] = dose: 400.0 mg/kg/injection, schedule: Q01DX009 (ip), vehicle: saline with Tween-80
smiles,measurement,setting,value
N=C(N)SCc1cccc2c(=O)cc(-c3ccccc3)oc12,T/C,"dose: 12.5 mg/kg/injection, schedule: Q01DX009 (ip), vehicle: Klucel (hydroxypropylcellulose) (HPC)",107 % of control
same,T/C,"dose: 25.0 mg/kg/injection, schedule: Q01DX009 (ip), vehicle: Klucel (hydroxypropylcellulose) (HPC)",104 % of control
same,T/C,[1],106 % of control
same,T/C,"dose: 50.0 mg/kg/injection, schedule: Q01DX009 (ip), vehicle: Klucel (hydroxypropylcellulose) (HPC)",107 % of control
same,T/C,[2],94 % of control
same,T/C,[3],100 % of control
same,T/C,"dose: 400.0 mg/kg/injection, schedule: Q01DX009 (ip), vehicle: saline",89 % of control
[O-][n+]1c(CN2CCCCC2)nc2cccc3c2c1-c1ccccc1-3,T/C,[4],98 % of control and 100 % of control
same,T/C,[5],98 % of control and 123 % of control
same,T/C,[6],105 % of control and 106 % of control
same,T/C,[7],111 % of control and 116 % of control
same,T/C,[8],102 % of control and 118 % of control
same,T/C,[9],111 % of control
Nc1nc2n[nH]nc2c(=O)[nH]1,T/C,"dose: 25.0 mg/kg/injection, schedule: Q01DX009 (ip), vehicle: suspension in saline",93 % of control
same,T/C,"dose: 50.0 mg/kg/injection, schedule: Q01DX009 (ip), vehicle: suspension in saline",98 % of control
Cc1c(N)nc([C@H](CC(N)=O)NC[C@H](N)C(N)=O)nc1C(=O)N[C@H](C(=O)N[C@H](C)[C@@H](O)CC(=O)N[C@H](C(=O)NC(O[C@@H]1O[C@@H](C)[C@@H](N)[C@@H](O)[C@H]1O)C(O)c1nc(-c2nc(C(=O)NCCCCN)cs2)cs1)[C@@H](C)O)[C@@H](O[C@@H]1O[C@@H](CO)[C@@H](O)[C@H](O)[C@@H]1O[C@H]1O[C@H](CO)[C@@H](O)[C@H](OC(N)=O)[C@@H]1O)c1c[nH]cn1 (stereo partly drawn),T/C,"dose: 1.0 mg/kg/injection, schedule: Q01DX009 (ip), vehicle: saline",109 % of control
same,T/C,"dose: 2.0 mg/kg/injection, schedule: Q01DX009 (ip), vehicle: saline",114 % of control
O=C1CCCCC1C(=O)C(F)(F)F (stereo not drawn),T/C,"dose: 50.0 mg/kg/injection, schedule: Q01DX009 (ip), vehicle: saline + Tween-80 + alcohol",100 % of control
C/C(=N\NC(N)=O)c1cccc(/C(C)=N/NC(N)=O)n1,T/C,"dose: 6.25 mg/kg/injection, schedule: Q01DX009 (ip), vehicle: saline with Tween-80",104 % of control
same,T/C,[4],100 % of control
same,T/C,[5],98 % of control
same,T/C,[6],103 % of control
same,T/C,[7],106 % of control
CC(C#N)(C#N)N=Nc1ccc(Cl)cc1Cl,T/C,[4],105 % of control
same,T/C,[5],94 % of control
same,T/C,[6],92 % of control
same,T/C,[7],103 % of control
same,T/C,[8],95 % of control
same,T/C,[9],101 % of control
O=C1C=CC(=Nc2ccc3c(c2)C(Br)c2ccccc2-3)O1 (stereo not drawn),T/C,"dose: 5.0 mg/kg/injection, schedule: Q01DX009 (ip), vehicle: saline with Tween-80",115 % of control
same,T/C,"dose: 10.0 mg/kg/injection, schedule: Q01DX009 (ip), vehicle: saline with Tween-80",111 % of control
same,T/C,"dose: 20.0 mg/kg/injection, schedule: Q01DX009 (ip), vehicle: saline with Tween-80",112 % of control
O=C(O)CC(NC(=O)CP(=O)(O)O)C(=O)O.[NH-]C1CCCCC1[NH-].[Pt+2] (stereo not drawn),T/C,"dose: 0.4 mg/kg/injection, schedule: Q01DX009 (ip), vehicle: dextrose",90 % of control
same,T/C,"dose: 0.8 mg/kg/injection, schedule: Q01DX009 (ip), vehicle: dextrose",110 % of control
same,T/C,"dose: 1.6 mg/kg/injection, schedule: Q01DX009 (ip), vehicle: dextrose",99 % of control
same,T/C,"dose: 3.0 mg/kg/injection, schedule: Q01DX009 (ip), vehicle: dextrose",108 % of control
same,T/C,"dose: 3.2 mg/kg/injection, schedule: Q01DX009 (ip), vehicle: dextrose",103 % of control
same,T/C,"dose: 6.25 mg/kg/injection, schedule: Q01DX009 (ip), vehicle: dextrose",110 % of control
O=P1(NCCCl)OCCC(OO)N1CCCl (stereo not drawn),T/C,"dose: 69.0 mg/kg/injection, schedule: Q01DX001 (ip), vehicle: Klucel (hydroxypropylcellulose) (HPC)",150 % of control
same,T/C,"dose: 101.0 mg/kg/injection, schedule: Q01DX001 (ip), vehicle: Klucel (hydroxypropylcellulose) (HPC)",117 % of control
same,T/C,"dose: 230.0 mg/kg/injection, schedule: Q01DX001 (ip), vehicle: Klucel (hydroxypropylcellulose) (HPC)",160 % of control
CCC(C)n1ncc2c(N(C)C)ncnc21 (stereo not drawn),T/C,[1],102 % of control
same,T/C,[2],98 % of control
O=C1CN(CN2CCOCC2)C(=O)CN1CN1CCOCC1,T/C,"dose: 12.5 mg/kg/injection, schedule: Q01DX009 (ip), vehicle: saline",118 % of control
same,T/C,[1],113 % of control
same,T/C,[2],95 % of control
same,T/C,[3],93 % of control
same,T/C,"dose: 200.0 mg/kg/injection, schedule: Q01DX009 (ip), vehicle: saline",104 % of control
